The source of these data is patent US8178554B2, “Heterocyclic compounds, their preparation and their use as medicaments, in particular as anti-bacterial agents” (priority 2000, dated 2012).

Assay type in all cases: cell-based
One test concerns E. coli DC2 (permeable). Description: In vitro activity, dilution in liquid medium, M.I.C. on E. coli DC2 (permeable). The note with it: code 250HT6, incubation twenty-four hours at 37° C. On the procedure:
(§1) In vitro activity, method of dilution in liquid medium
(§2) A series of tubes are prepared in which the same quantity of sterile nutritive medium is distributed. Increasing quantities of the product to be studied are distributed into each tube, then each tube is sown with a bacterial strain. After incubation for twenty-four hours in a heating chamber at 37° C., the growth inhibition is evaluated by transillumination, which allows the minimal inhibitory concentrations (M.I.C.) to be determined, expressed in μg/cml.

For another test, the system named is S. aureus Exp 54146. Nature of the test: In vitro activity, dilution in liquid medium, M.I.C. on S. aureus Exp 54146. The note with it: S. aureus Exp 54146, code 011UC4, incubation twenty-four hours at 37° C. On the procedure: as §1, §2
Another test deals with E. coli. Nature of the test: In vitro activity, dilution in liquid medium, M.I.C. on E. coli 250HT11. The note with it: code 250HT11, incubation twenty-four hours at 37° C. On the procedure: as §1, §2
The subject of another test is E. coli (hyperpermeable). Nature of the test: In vitro activity, dilution in liquid medium, M.I.C. on E. coli (hyperpermeable). Particulars: code 250IP5, incubation twenty-four hours at 37° C. Here is the method:
as §1, §2

Another test relates to S. aureus SG511. Description: In vitro activity, dilution in liquid medium, M.I.C. on S. aureus SG511. Particulars: S. aureus SG511, code 011 HT3, incubation twenty-four hours at 37° C. Here is the method:
as §1, §2

In another test the test system is S. Pyogenes A561. Nature of the test: In vitro activity, dilution in liquid medium, M.I.C. on S. Pyogenes A561. The note with it: S. Pyogenes A561, code 02A1UC1, incubation twenty-four hours at 37° C. Here is the method:
as §1, §2

As to `O=C(NCc1cccnc1)[C@H]1CC[C@@H]2CN1C(=O)N2OS(=O)(=O)[O-].[Na+]` (relative stereo) [Test C, Sodium salt of trans-7-oxo-N-(3-pyridinylmethyl)-6-(sulphooxy)-1,6-diazabicyclo[3,2,1] octane-2-carboxamide], the M.I.C. with E. coli DC2 (permeable) is 20 µg/mL; in the test with S. aureus Exp 54146, over 80 µg/mL; with E. coli, 20 µg/mL; in the test on E. coli (hyperpermeable), 5 µg/mL; in the test with S. aureus SG511 it was over 80 µg/mL; in the test with S. Pyogenes A561, over 80 µg/mL.

In the case of `O=C(NCc1ccncc1)[C@H]1CC[C@@H]2CN1C(=O)N2OS(=O)(=O)[O-].[Na+]` (relative stereo) [Test D, Sodium salt of trans-7-oxo-N-[(4-pyridinyl)methyl]-6-(sulphooxy)-1,6-diazabicyclo[3,2,1] octane-2-carboxamide], the M.I.C. in the test with E. coli DC2 (permeable) is 20 µg/mL; with S. aureus Exp 54146 it was over 80 µg/mL; in the test with E. coli, 20 µg/mL; in the test with E. coli (hyperpermeable) it was 2.5 µg/mL; in the test on S. aureus SG511, over 80 µg/mL; with S. Pyogenes A561, over 80 µg/mL.

For the compound `[NH-]C(=O)[C@H]1CC[C@@H]2CN1C(=O)N2OS(=O)(=O)[O-].[Na+].[Na+]` (relative stereo) [Test B, Sodium salt of trans-7-oxo-6-(sulphooxy)-1,6-diazabicyclo[3,2,1]octane-2-carboxamide], the M.I.C. in the test on E. coli DC2 (permeable) is 40 µg/mL; in the test on S. aureus Exp 54146, over 160 µg/mL; in the test on E. coli, 80 µg/mL; in the test on E. coli (hyperpermeable) it was 10 µg/mL; with S. aureus SG511, over 160 µg/mL; in the test with S. Pyogenes A561, over 160 µg/mL.

Take `O=C(OCc1ccccc1)[C@H]1CC[C@@H]2CN1C(=O)N2OS(=O)(=O)[O-].[Na+]` (relative stereo) [Test F, Sodium salt of phenylmethyl trans-7-oxo-6-(sulphooxy)-1,6-diazabicyclo[3,2,1]octane-2-carboxylate]: the M.I.C. in the test with S. aureus Exp 54146 and with S. aureus SG511 was 160 µg/mL in each case.

On to `NC(=O)CNC(=O)[C@H]1CC[C@@H]2CN1C(=O)N2OS(=O)(=O)[O-].[Na+]` (relative stereo) [Test A, Sodium salt of trans-N-(2-amino-2-oxoethyl)-7-oxo-6-(sulphooxy)-1,6-diazabicyclo[3,2,1]octane-2-carboxamide], for which the M.I.C. with E. coli DC2 (permeable) was 80 µg/mL; in the test with S. aureus Exp 54146, over 160 µg/mL; in the test with E. coli, 160 µg/mL; in the test with E. coli (hyperpermeable) it was 20 µg/mL; with S. aureus SG511, over 160 µg/mL; in the test with S. Pyogenes A561, 160 µg/mL.

Regarding `O=C(NCc1ccccc1)[C@H]1CC[C@@H]2CN1C(=O)N2OS(=O)(=O)[O-].[Na+]` (relative stereo) [Test E, Sodium salt of trans-7-oxo-N-(phenylmethyl)-6-(sulphooxy)-1,6-diazabicyclo[3,2,1]octane-2-carboxamide], the M.I.C. in the test with E. coli DC2 (permeable) was over 80 µg/mL; in the test on S. aureus Exp 54146 it was 5 µg/mL; in the test with E. coli, over 80 µg/mL; in the test with E. coli (hyperpermeable), 20 µg/mL; in the test with S. aureus SG511 it was 5 µg/mL; in the test on S. Pyogenes A561, 1.2 µg/mL.
